According to patent publication US20260215419A1, “PLANT EXTRACTS WITH HERBICIDAL ACTIVITY” (Agrematch Ltd., priority 2023, published 2026):

Columns and labels:
Type in all cases: in vivo
Amaranthus palmeri = experiment: Post-emergence herbicidal activity, visual damage score 0-100; conditions: Table 4; 7-day old plants; 0.8 ml per 80 cm^2 pot; scored 13 days after application; average of five pots; synthetic Rhein 1 gram/liter (1000 g/ha) in 2% MIPA, 2% DASH, 0.25% Genapol
Description: (§1) Damage assessment: Herbicidal activity was assessed and scored by visual inspection of the plants in comparison to plants treated with the formulation alone (with no plant extract) as control. Activity score is in the range of 0 to 100, where 0 represents no herbicidal activity like control plants and 100 represents the maximal herbicidal activity (i.e., total death of the plant).
(§2) The herbicidal activity of Rhein-containing extracts was determined by post-emergence application on 8-day old plants (weeds) of the Amaranthus palmeri and Setaria viridis species that were grown at 16 hours/8 hours day/night cycles at 30° C./25° C., respectively. Leaf stage was typically 4-6 for A. palmeri and 3-4 for S. viridis. […]
(§3) Herbicidal activity was assessed and scored 4 days after application by visual inspection of the plants in comparison to plants treated with the control solution alone (with no active ingredient). […]
(§4) Herbicidal activity of extract sample A-1b was determined by post-emergence application on 8-day old plants (weeds) of the A. palmeri and S. viridis species and 11-day old plants (weeds) of Abutilon theophrasti, Solanum nigrum, Echinochloa colonum, Phalaris canarinesis and Lolium multiflorum that were grown at 16 hours/8 hours day/night cycles at 30° C./25° C., respectively. […]
(§5) Herbicidal activity was assessed and scored 13 days after application, as described hereinabove. […]

Solanum nigrum = experiment: Post-emergence weed panel, visual damage score 0-100; conditions: Table 4; 8-day old plants; 0.8 ml per 80 cm^2 pot; scored 13 days after application; average of five pots; synthetic Rhein 1 gram/liter (1000 g/ha)
Description: Damage assessment: Herbicidal activity was assessed and scored by visual inspection of the plants in comparison to plants treated with the formulation alone (with no plant extract) as control. Activity score is in the range of 0 to 100, where 0 represents no herbicidal activity like control plants and 100 represents the maximal herbicidal activity (i.e., total death of the plant). Herbicidal activity of extract sample A-1b was determined by post-emergence application on 8-day old plants (weeds) of the A. palmeri and S. viridis species and 11-day old plants (weeds) of Abutilon theophrasti, Solanum nigrum, Echinochloa colonum, Phalaris canarinesis and Lolium multiflorum that were grown at 16 hours/8 hours day/night cycles at 30° C./25° C., respectively. Leaf stage was typically 4-6 for A. palmeri, 3-4 for S. viridis, 3 for A. theophrasti and S. nigrum, 4 for E. colonum, and 2 for P. canarinesis and L. multiflorum. […] Herbicidal activity was assessed and scored 3 days after application, as described hereinabove. Herbicidal activity was determined by post-emergence application on 7-day old plants (weeds) of the A. palmeri and S. viridis species and 8-day old plants (weeds) of S. nigrum, and C. quinoa that were grown at 16 hours/8 hours day/night cycles at 30° C./25° C., respectively. […] Herbicidal activity was assessed and scored 13 days after application, as described hereinabove.

Chenopodium quinoa = experiment: as above; conditions: Table 4; 8-day old plants; 0.8 ml per 80 cm^2 pot; scored 13 days after application; average of five pots; synthetic Rhein 1 gram/liter (1000 g/ha)
Description: Damage assessment: Herbicidal activity was assessed and scored by visual inspection of the plants in comparison to plants treated with the formulation alone (with no plant extract) as control. Activity score is in the range of 0 to 100, where 0 represents no herbicidal activity like control plants and 100 represents the maximal herbicidal activity (i.e., total death of the plant). Herbicidal activity was determined by post-emergence application on 7-day old plants (weeds) of the A. palmeri and S. viridis species and 8-day old plants (weeds) of S. nigrum, and C. quinoa that were grown at 16 hours/8 hours day/night cycles at 30° C./25° C., respectively. Leaf stage was typically 4-6 for A. palmeri, 3-4 for S. viridis, and 4 for S. nigrum and C. quinoa. Each treatment contained five 80 cm^2 pots, each containing about 4 plants of one of the tested weed species. Each pot was sprayed with 0.8 ml of either: • 1. the exemplary extract sample A-1b, in which plant source A powder was mixed with solution 1b for 1.5 hours before filtration, or • 2. 1 gram/liter synthetic Rhein molecule dissolved in 2% MIPA, 2% DASH and 0.25% Genapol solution, which is equivalent to 1000 g/ha. Herbicidal activity was assessed and scored 13 days after application, as described hereinabove.

Setaria viridis = experiment: Post-emergence herbicidal activity, visual damage score 0-100; conditions: Table 4; 7-day old plants; 0.8 ml per 80 cm^2 pot; scored 13 days after application; average of five pots; synthetic Rhein 1 gram/liter (1000 g/ha)
Description: as §1, §2, §3, §4, §5

Compound: O=C(O)c1cc(O)c2c(c1)C(=O)c1cccc(O)c1C2=O [Synthetic Rhein, Rhein]
- Score (Amaranthus palmeri) (Amaranthus palmeri): 100
- Score (Solanum nigrum) (Solanum nigrum): 100
- Score (Chenopodium quinoa) (Chenopodium quinoa): 100
- Score (Setaria viridis) (Setaria viridis): 97
